Experimental data from PubChem BioAssay AID179 (DTP/NCI, 2004).
Active and inactive are the calls of the source.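 Rule for the calls: active = compounds giving half or more protection of infected cells from virus-caused growth loss, again on retest; inactive = the rest.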

Test system: CEM cells HIV-1 protection, formazan growth assay
Assay: NCI AIDS Antiviral Assay
Settings: for IC50: measured here: growth of uninfected CEM cells
Procedure, shortened: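 Category rules: moderately active means at least 50% protection on retest, and confirmed active means 100% protection reproducibly. The underlying data came from a formazan growth assay in HIV-1-infected CEM cells.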

Cc1cc(/C=C/c2cc[n+](C)c3ccccc23)c(O)c2ncccc12
EC50: > 398 µM | IC50: 0.759 µM

CC(=S)NNC(=O)c1ccncc1
EC50: > 1290 µM | IC50: 135 µM

COc1cccc(N(CN2CC=CC2=O)C(C)=O)c1
outcome: inactive

COCCN1C(=O)C(NC(C)=O)C1COC(C)(C)C (configuration not stated)
EC50: > 912 µM | IC50: > 912 µM

N#Cc1cccc(C=C2C(=O)c3ccccc3C2=O)c1
EC50: > 36.3 µM | IC50: > 36.3 µM

O=C(NCCCCCCNC(=O)n1cc(F)c(=O)[nH]c1=O)NCCCOCCOCCCNC(=O)C(O)C(O)C(O)C(O)CO (configuration not stated)
outcome: inactive

Cc1ccc(-c2c(C#N)c(-c3ccc([N+](=O)[O-])cc3)c(C#N)c(=O)n2NS(=O)(=O)c2ccc(C)cc2)cc1
EC50: > 200 µM | IC50: 12 µM

CCOC(CC1(O)C(=O)N(Cc2ccccc2)c2ccccc21)OCC (configuration not stated)
EC50: > 200 µM | IC50: > 200 µM

CC/C(=N/O)C(C)C(=O)CCC(=O)Nc1ccc(Cl)cc1 (configuration not stated)
EC50: > 83.2 µM | IC50: > 83.2 µM

OC1(c2ccccc2)CC(c2ccccc2)c2ccccc2O1 (configuration not stated)
EC50: > 200 µM | IC50: 31.6 µM

CCc1n[nH]c(=O)n1/N=C/c1ccccc1O
EC50: > 200 µM | IC50: > 200 µM

CCOC(=O)c1[nH]c(COC(C)=O)c(CCCOC(C)=O)c1CCCOC(C)=O
outcome: inactive

COc1ccc(CCCNC(=O)c2cc(OC)c(OC)cc2CCO)cc1OC
EC50: > 200 µM | IC50: > 200 µM

O=C(N=C1[Se]C(=Nc2ccccc2)C(=Nc2ccccc2)N1c1ccc(Cl)cc1)c1ccccc1
EC50: > 100 µM | IC50: 89.1 µM

CC1(C)CCC(C)(C)C1C(=O)NC(O)C(=O)O (configuration not stated)
EC50: > 200 µM | IC50: > 200 µM

O=CSC(=Nc1ccc(Cl)cc1)NC(=O)COc1ccc(Cl)cc1
EC50: > 148 µM | IC50: > 100 µM

CCCCCCCCCCCC(O)=C1C(=O)CCCC1=O
EC50: > 17.8 µM | IC50: > 17.8 µM

CCN(CCO)CC1COc2ccccc2O1 (configuration not stated)
EC50: > 200 µM | IC50: > 200 µM

CCN(CC)c1cc(OCc2ccccc2)cc2c1[C@H]1COc3cc(OC)ccc3[C@H]1O2
outcome: inactive

COc1cc(NCCN2CCN(CCNc3cc(OC)cc4cccnc34)CC2)c2ncccc2c1
EC50: > 50.1 µM | IC50: 45.7 µM

[N-]=[N+]=Nc1ccc(CCN2CCN(c3cccc(C(F)(F)F)c3)CC2)cc1I
outcome: inactive

O=C(O)CCCc1ccc(N(CCCl)CCCl)cc1
EC50: > 200 µM | IC50: 14.8 µM

CC(C)(c1ccccc1)c1ccc(OC#N)cc1
EC50: > 57.5 µM | IC50: > 57.5 µM

COC(=O)C(=O)C(C(=O)C(N)=O)c1nc2ccc(C(=O)c3ccccc3)cc2[nH]c1=O (configuration not stated)
EC50: > 85.1 µM | IC50: > 85.1 µM

FC(F)(F)c1ccc2c(c1)N(CCCN1CCNCC1)c1ccccc1S2
EC50: > 34.7 µM | IC50: 21.4 µM

CC1(C)CC2CC(CC(C)(C)C2=O)C1=O
EC50: > 871 µM | IC50: > 871 µM

CC1(C)CC(=O)C2=C(C1)Nn1c(nnc1C(F)(F)F)S2
EC50: > 813 µM | IC50: 355 µM

O=C1COCC(=O)N1
EC50: > 2190 µM | IC50: > 2190 µM

COc1cccc2c(NCCC[N+](C)(C)[O-])c3c([N+](=O)[O-])ccc(OC)c3nc12
EC50: > 200 µM | IC50: 1.32 µM

Cc1cc(Sc2cc(C)c(O)c(C(C)(C)C)c2)cc(C(C)(C)C)c1O
EC50: > 200 µM | IC50: 15.8 µM

O=C1C(Cl)N(c2cccc([N+](=O)[O-])c2)C1c1c[nH]c2ccccc12 (configuration not stated)
EC50: > 105 µM | IC50: 5.01 µM

CCOC(=O)c1cnc2c(ccc3ncccc32)c1Cl
EC50: > 66.1 µM | IC50: 34.7 µM

CC1CCC(C(C)C)C(OC(=O)NCn2cc(-c3ccccc3)nn2)C1 (configuration not stated)
EC50: > 200 µM | IC50: > 200 µM

CN1CCc2c(sc(N)c2C#N)C1
outcome: inactive

O=c1c2c(c1=O)C1(SCCCS1)c1cc(Cl)ccc1O2
EC50: > 200 µM | IC50: > 200 µM

COC(=O)C1SC[C@H]2C(=O)N(c3ccccc3)C(=O)N12 (some centres not stated)
EC50: > 200 µM | IC50: > 200 µM

Cc1cc(S(=O)(=O)Nc2nc3ccccc3n2-c2ccccc2)c(S)cc1Cl
EC50: > 200 µM | IC50: 162 µM

COC(=O)C(C(=O)C(=O)Nc1c(C)cccc1C(C)(C)C)c1nc2ccc(Cl)cc2[nH]c1=O (configuration not stated)
EC50: > 55 µM | IC50: > 55 µM

c1ccc(COc2ccc(C[P+](c3ccccc3)(c3ccccc3)c3ccccc3)cc2)cc1
EC50: > 20 µM | IC50: 0.324 µM

Cc1ccc(S(=O)(=O)N2CCC(C(=O)O)(c3ccccc3)CC2)cc1
EC50: > 182 µM | IC50: > 182 µM

Cc1ccc(S(=O)(=O)N2CCN(CCO)CCN(S(=O)(=O)c3ccc(C)cc3)CCN(CCO)CC2)cc1
EC50: > 200 µM | IC50: 34.7 µM

O=C(/C=C/c1ccccc1)CC(=O)c1ccccc1.O=C(/C=C/c1ccccc1)CC(=O)c1ccccc1.[Cu]
EC50: > 200 µM | IC50: 95.5 µM

Brc1ccc2c(-c3csc(-c4c[nH]c5cc(Br)ccc45)n3)c[nH]c2c1
EC50: > 200 µM | IC50: 52.5 µM

CC(C)(C)[Si](C)(C)OCC1OC(n2ccc(=O)[nH]c2=O)C(O[Si](C)(C)C(C)(C)C)C1(O)C/C=N/O (configuration not stated)
EC50: > 200 µM | IC50: 7.59 µM

CCc1[nH]nc(-c2ccc(OC)cc2)c1-c1ccccc1O
EC50: > 200 µM | IC50: 20.9 µM

Fc1ccccc1-c1nn2c(C34CC5CC(CC(C5)C3)C4)nnc2s1
EC50: > 200 µM | IC50: > 200 µM

S=c1nc2sc3c(c2c(Nc2ccccc2)[nH]1)CCCC3
EC50: > 200 µM | IC50: > 200 µM

CC(=O)O[C@@H]1CC[C@@]2(C)C(CC[C@H]3[C@@H]4CC[C@H]([C@H](C)CCc5nc6ccc(C)cc6[nH]5)[C@@]4(C)CC[C@@H]32)C1 (some centres not stated)
EC50: > 200 µM | IC50: 16.6 µM

CC(CN(C)C)Sc1nnc(SC(C)CN(C)C)s1 (configuration not stated)
outcome: inactive

O=C(O)C1CCC(C(=O)O)SS1 (configuration not stated)
EC50: > 1200 µM | IC50: > 1200 µM

Cn1c(COc2ccc(/C=N/NC(=O)c3cccc(C(=O)N/N=C/c4ccc(OCc5c[n+]6ccccc6n5C)cc4)c3)cc2)c[n+]2ccccc12
EC50: > 6.92 µM | IC50: > 6.92 µM

COc1cc(CCCC(O)COc2cccc3c2C2(O)CCCCCC32)cc(OC)c1 (configuration not stated)
EC50: > 200 µM | IC50: 12.6 µM

COc1ccc2cc1Oc1ccc(cc1)CC1c3cc(c(OC)cc3CCN1C)Oc1c3c(cc4c1C(C2)N(C)CC4)OCO3 (configuration not stated)
outcome: inactive

CC(C)Oc1cc2c(c3oc(=O)cc(CCl)c13)C(=O)[C@H](C)[C@@H](C)O2
EC50: > 200 µM | IC50: 5.37 µM

CN(C)c1ncnc2c1ncn2C1C=CC(COS(N)(=O)=O)C1 (configuration not stated)
EC50: > 200 µM | IC50: > 200 µM

CC(C)=C[C@@H]1C[C@H](n2cc(C)c(=O)[nH]c2=O)ON1CCOS(=O)(=O)c1ccc(C)cc1
EC50: > 200 µM | IC50: 81.3 µM

CCn1cc(C(=O)O)c(=O)c2ccc(C)nc21
outcome: inactive

O=S(=O)(O)c1cc(O)c2c(N=Nc3ccc(Nc4ccccc4)c4c(S(=O)(=O)O)cccc34)cc(S(=O)(=O)O)cc2c1
EC50: 112 µM | IC50: > 200 µM

CC(=O)OCC1OC(OC(C)=O)C(NC(=O)CI)C(OC(C)=O)C1OC(C)=O (configuration not stated)
EC50: > 490 µM | IC50: 2.57 µM

Cc1cc2c(cc1C)C(=O)C1(C2)Cc2c(ccc(C)c2C)C1=O (configuration not stated)
EC50: > 100 µM | IC50: > 100 µM

Cc1[nH]n(-c2nc(-c3ccccc3)cc(=O)[nH]2)c(=O)c1CCO
EC50: > 200 µM | IC50: > 200 µM

CNC(=O)CCNC(=O)CCC(=O)N(C)C
EC50: > 200 µM | IC50: > 200 µM

COc1ccc(/C(CC2OC(=O)c3ccccc32)=N\NC(=O)C[N+](C)(C)C)cc1 (configuration not stated)
EC50: > 77.6 µM | IC50: 24 µM

[C-]#[O+].[C-]#[O+].[C-]#[O+].[C-]#[O+].[Mo].c1ccc(P(CCP(CCP(c2ccccc2)c2ccccc2)c2ccccc2)CCP(c2ccccc2)c2ccccc2)cc1 (configuration not stated)
EC50: > 0.617 µM | IC50: > 0.617 µM

O=C1NC(=O)C(C(=O)C(=O)Nc2ccc(Cl)cc2Cl)C(=O)N1
EC50: > 275 µM | IC50: > 275 µM

O=C1CC2CCCC(C1)S2=O (configuration not stated)
EC50: > 1450 µM | IC50: > 1450 µM

CCCCCCCCCCCC(=O)OCCOCCOCCOCc1ccccc1
outcome: inactive

O=CC(NC(=O)N(CCCl)N=O)C(O)C(O)C(O)CO (configuration not stated)
EC50: > 398 µM | IC50: > 398 µM

O=C(Nc1ccc(Cl)cc1Cl)C1C(=O)N(c2ccc(Cl)cc2Cl)C(=O)/C1=N\Nc1ccc([N+](=O)[O-])cc1[N+](=O)[O-] (configuration not stated)
EC50: > 1.66 µM | IC50: > 1.66 µM

CCN(C(=S)N[C@H](C(=O)N[C@@H](C)C(=O)OC)C(C)C)c1ccccc1
EC50: 0.575 µM | IC50: 29.5 µM

Cc1nc2cc(C(F)(F)F)ccc2[nH]c1=O
EC50: > 200 µM | IC50: > 200 µM

O=C1C2C3CC4C5C3C1C5C1(SCCS1)C42 (configuration not stated)
outcome: inactive

Cc1[nH]c(=O)[nH]c(=O)c1CN1CCCCC1
EC50: > 6.46 µM | IC50: > 6.46 µM

O=C(O)c1cccc2c(=O)c3ccccc3oc12
EC50: > 977 µM | IC50: 209 µM

COC1CC(C)C(OC)c2cc(O)cc(c2O)NC(=O)/C(C)=C/C=C\C(C)C(OC(N)=O)/C(C)=C\C(C)C1OC (configuration not stated)
EC50: > 170 µM | IC50: 0.676 µM

OCCN(CCO)c1cccc(N(CCO)CCO)c1
outcome: inactive

COC(=O)C1(NC(=O)C(N)CC(=O)O)C(C)C1C (configuration not stated)
EC50: > 200 µM | IC50: > 200 µM

CCCCOC(=O)OC1CCC2(C)CC3C=CC2(OO3)C1(C)C (configuration not stated)
EC50: > 20 µM | IC50: 4.27 µM

NC(=O)N1c2ccccc2C=Cc2ccccc21
EC50: > 200 µM | IC50: > 200 µM

O=C1CC(c2ccccc2)S(=O)(=O)c2ccccc2N1 (configuration not stated)
EC50: > 200 µM | IC50: > 200 µM

CC1=NOC2(C1)/C(=N/O)CCC/C2=N\O (configuration not stated)
EC50: > 200 µM | IC50: > 200 µM

CC1(C)C2CCC1(C)C(Cl)([N+](=O)[O-])C2 (configuration not stated)
outcome: inactive

NCCSSCCN
outcome: active

O=C1SC(=NC2CCCCC2)N(C2CCCCC2)/C1=C1\C(=O)SC(=NC2CCCCC2)N1C1CCCCC1
EC50: > 26.9 µM | IC50: > 26.9 µM

Cc1ncc(C(N)=O)c2c1OC(C)(C)OC2
EC50: > 200 µM | IC50: > 200 µM

O=C1C=C(Nc2cc(Cl)ccc2Cl)c2ccccc2C1=O
EC50: > 3.16 µM | IC50: > 3.16 µM

CC(CS(C)(=O)=O)S(=O)(=O)O (configuration not stated)
EC50: > 200 µM | IC50: > 200 µM

CN(C)C(=S)N/N=C\C=N/NC(=S)N(C)C
EC50: > 0.2 µM | IC50: 0.117 µM
